# Experimental data as given in US20070049593A1 (priority 2004, published 2007).
# pIC50: −log10 of the molar value. Where a name gives a salt, the structure may show the parent alone.
# Target: T1, HCV polymerase (Hepatitis C virus genotype 1b, UniProt P26663)
# T1 construct: a region encoding NS5B (J Virol 1991 March, 65(3), 1105-13, 544 amino acids after deletion of 47 amino acids on the C-terminal); 6xHis (C); made in house; host or cells: Escherichia coli
# Assay: biochemical
# Parameters: species or system HCV BK strain
# Procedure, shortened: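 Recombinant HCV BK-strain NS5B (C-terminal 47 aa deleted, His6-tagged, E. coli), 0.5 μg/ml, run with 5 μg/ml in vitro-transcribed RNA template (polyU/3′X), ATP/GTP/CTP 50 μM, UTP 2 μM plus [3H]UTP, pH 7.5, 25° C, 90 min. TCA-precipitated RNA counted by scintillation; IC50 from activity with vs without compound.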
# T1 sequence (P26663 2420-2963): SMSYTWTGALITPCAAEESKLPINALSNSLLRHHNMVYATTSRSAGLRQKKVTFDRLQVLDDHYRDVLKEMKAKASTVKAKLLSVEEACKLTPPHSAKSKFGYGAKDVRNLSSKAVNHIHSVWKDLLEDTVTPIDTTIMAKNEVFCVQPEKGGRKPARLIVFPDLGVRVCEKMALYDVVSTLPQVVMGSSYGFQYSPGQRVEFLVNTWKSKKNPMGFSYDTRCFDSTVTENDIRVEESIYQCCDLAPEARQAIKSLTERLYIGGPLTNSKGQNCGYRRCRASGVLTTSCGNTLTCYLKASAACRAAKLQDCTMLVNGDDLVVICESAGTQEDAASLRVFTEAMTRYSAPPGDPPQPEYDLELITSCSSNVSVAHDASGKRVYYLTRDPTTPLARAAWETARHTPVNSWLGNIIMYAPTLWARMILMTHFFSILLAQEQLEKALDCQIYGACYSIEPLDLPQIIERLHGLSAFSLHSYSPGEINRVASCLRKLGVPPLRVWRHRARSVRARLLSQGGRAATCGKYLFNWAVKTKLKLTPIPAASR
row,SMILES,pIC50
1,"CC(C)N1CCC(CCN2CCn3c(c(C4CCCCC4)c4ccc(C(=O)O)cc43)-c3ccc(Cl)cc32)CC1 [Example 1-240, 3-chloro-13-cyclohexyl-5-[2-(1-isopropylpiperidin-4-yl)ethyl]-6,7-dihydro-5H-benzo[5,6][1,4]diazepino[7,1-a]indole-10-carboxylic acid dihydrochloride]",> 7.00
2,"Cc1cccc2c1-c1c(C3CCCCC3)c3ccc(C(=O)O)cc3n1CCN2CCN1CCCCC1 [Example 1-241, 13-cyclohexyl-1-methyl-5-[2-(piperidin-1-yl)ethyl]-6,7-dihydro-5H-benzo[5,6][1,4]diazepino[7,1-a]indole-10-carboxylic acid dihydrochloride]",> 7.00
3,"O=C(O)c1ccc2c(C3CCCCC3)c3n(c2c1)CCN(CCCN1CCCCC1)c1cc(Cl)ccc1-3 [Example 1-242, 3-chloro-13-cyclohexyl-5-[3-(piperidin-1-yl)propyl]-6,7-dihydro-5H-benzo[5,6][1,4]diazepino[7,1-a]indole-10-carboxylic acid dihydrochloride]",> 7.00
4,"CCN1CCC(CCN2CCn3c(c(C4CCCCC4)c4ccc(C(=O)O)cc43)-c3ccc(Cl)cc32)CC1 [Example 1-243, 3-chloro-13-cyclohexyl-5-[2-(1-ethylpiperidin-4-yl)ethyl]-6,7-dihydro-5H-benzo[5,6][1,4]diazepino[7,1-a]indole-10-carboxylic acid dihydrochloride]",> 7.00
5,"O=C(O)c1ccc2c(C3CCCCC3)c3n(c2c1)CCN(CCC1CCNCC1)c1cc(Cl)ccc1-3 [Example 1-244, 3-chloro-13-cyclohexyl-5-[2-(piperidin-4-yl)ethyl]-6,7-dihydro-5H-benzo[5,6][1,4]diazepino[7,1-a]indole-10-carboxylic acid dihydrochloride]",> 7.00
6,"O=C(O)c1ccc2c(C3CCCCC3)c3n(c2c1)CCN(CCCN1CCCCCC1)c1cc(Cl)ccc1-3 [Example 1-245, 5-[3-(azepan-1-yl)propyl]-3-chloro-13-cyclohexyl-6,7-dihydro-5H-benzo[5,6][1,4]diazepino[7,1-a]indole-10-carboxylic acid dihydrochloride]",> 7.00
7,"CN1CCC(CCN2CCn3c(c(C4CCCCC4)c4ccc(C(=O)O)cc43)-c3ccc(Cl)cc32)CC1 [Example 1-246, 3-chloro-13-cyclohexyl-5-[2-(1-methylpiperidin-4-yl)ethyl]-6,7-dihydro-5H-benzo[5,6][1,4]diazepino[7,1-a]indole-10-carboxylic acid dihydrochloride]",> 7.00
8,"CN(C)CCCN1CCn2c(c(C3CCCCC3)c3ccc(C(=O)O)cc32)-c2ccc(Cl)cc21 [Example 1-247, 3-chloro-13-cyclohexyl-5-(3-dimethylaminopropyl)-6,7-dihydro-5H-benzo[5,6][1,4]diazepino[7,1-a]indole-10-carboxylic acid dihydrochloride]",> 7.00
9,"O=C(O)c1ccc2c(C3CCCCC3)c3n(c2c1)CCN(CCN1CCCCC1)c1cc(F)c(F)cc1-3 [Example 1-248, 13-cyclohexyl-2,3-difluoro-5-[2-(piperidin-1-yl)ethyl]-6,7-dihydro-5H-benzo[5,6][1,4]diazepino[7,1-a]indole-10-carboxylic acid dihydrochloride]",> 7.00
10,"CCC1CCCN(CCN2CCn3c(c(C4CCCCC4)c4ccc(C(=O)O)cc43)-c3ccc(Cl)cc32)C1 (centres unmarked) [Example 1-249, 3-chloro-13-cyclohexyl-5-[2-(3-ethylpiperidin-1-yl)ethyl]-6,7-dihydro-5H-benzo[5,6][1,4]diazepino[7,1-a]indole-10-carboxylic acid dihydrochloride]",> 7.00
11,"COC(=O)N1CCC(N(C)CCN2CCn3c(c(C4CCCCC4)c4ccc(C(=O)O)cc43)-c3ccccc32)C1 (centres unmarked) [Example 1-250, 13-cyclohexyl-5-{2-[N-(1-methoxycarbonylpyrrolidin-3-yl)-N-methylamino]ethyl}-6,7-dihydro-5H-benzo[5,6][1,4]diazepino[7,1-a]indole-10-carboxylic acid monohydrochloride]",> 7.00
12,"CC(=O)N1CCC(N(C)CCN2CCn3c(c(C4CCCCC4)c4ccc(C(=O)O)cc43)-c3ccccc32)C1 (centres unmarked) [Example 1-251, 5-{2-[N-(1-acetylpyrrolidin-3-yl)-N-methylamino]ethyl}-13-cyclohexyl-6,7-dihydro-5H-benzo[5,6][1,4]diazepino[7,1-a]indole-10-carboxylic acid monohydrochloride]",> 7.00
13,"CN(CCN1CCn2c(c(C3CCCCC3)c3ccc(C(=O)O)cc32)-c2ccccc21)C1CCN(S(C)(=O)=O)C1 (centres unmarked) [Example 1-252, 13-cyclohexyl-5-{2-[N-(1-methanesulfonylpyrrolidin-3-yl)-N-methylamino]ethyl}-6,7-dihydro-5H-benzo[5,6][1,4]diazepino[7,1-a]indole-10-carboxylic-acid]",> 7.00
14,"Cc1ccc2c(c1)N(CCN1CCCC(C)C1)CCn1c-2c(C2CCCCC2)c2ccc(C(=O)O)cc21 (centres unmarked) [Example 1-253, 13-cyclohexyl-3-methyl-5-[2-(3-methylpiperidin-1-yl)ethyl]-6,7-dihydro-5H-benzo[5,6][1,4]diazepino[7,1-a]indole-10-carboxylic acid dihydrochloride]",> 7.00
15,"CC1CCCN(CCN2CCn3c(c(C4CCCCC4)c4ccc(C(=O)O)cc43)-c3ccc(F)cc32)C1 (centres unmarked) [Example 1-254, 13-cyclohexyl-3-fluoro-5-[2-(3-methylpiperidin-1-yl)ethyl]-6,7-dihydro-5H-benzo[5,6][1,4]diazepino[7,1-a]indole-10-carboxylic acid dihydrochloride]",> 7.00
16,"CC1CN(CCN2CCn3c(c(C4CCCCC4)c4ccc(C(=O)O)cc43)-c3ccccc32)CCO1 (centres unmarked) [Example 1-255, 13-cyclohexyl-5-[2-(2-methylmorpholin-4-yl)ethyl]-6,7-dihydro-5H-benzo[5,6][1,4]diazepino[7,1-a]indole-10-carboxylic acid dihydrochloride]",> 7.00
17,"CCC1CN(CCN2CCn3c(c(C4CCCCC4)c4ccc(C(=O)O)cc43)-c3ccccc32)CCO1 (centres unmarked) [Example 1-256, 13-cyclohexyl-5-[2-(2-ethylmorpholin-4-yl)ethyl]-6,7-dihydro-5H-benzo[5,6][1,4]diazepino[7,1-a]indole-10-carboxylic acid dihydrochloride]",> 7.00
18,"CCC1COCCN1CCN1CCn2c(c(C3CCCCC3)c3ccc(C(=O)O)cc32)-c2ccccc21 (centres unmarked) [Example 1-257, 13-cyclohexyl-5-[2-(3-ethylmorpholin-4-yl)ethyl]-6,7-dihydro-5H-benzo[5,6][1,4]diazepino[7,1-a]indole-10-carboxylic acid dihydrochloride]",> 7.00
19,"Cc1ccc2c(c1)N(CCN1CCCCC1C)CCn1c-2c(C2CCCCC2)c2ccc(C(=O)O)cc21 (centres unmarked) [Example 1-258, 13-cyclohexyl-3-methyl-5-[2-(2-methylpiperidin-1-yl)ethyl]-6,7-dihydro-5H-benzo[5,6][1,4]diazepino[7,1-a]indole-10-carboxylic acid dihydrochloride]",> 7.00
20,"Cc1ccc2c(c1)N(CCN1CCC(C)CC1)CCn1c-2c(C2CCCCC2)c2ccc(C(=O)O)cc21 [Example 1-259, 13-cyclohexyl-3-methyl-5-[2-(4-methylpiperidin-1-yl)ethyl]-6,7-dihydro-5H-benzo[5,6][1,4]diazepino[7,1-a]indole-10-carboxylic acid dihydrochloride]",> 7.00
21,"Cc1ccc2c(c1)N(CCN1CCCC1)CCn1c-2c(C2CCCCC2)c2ccc(C(=O)O)cc21 [Example 1-260, 13-cyclohexyl-3-methyl-5-[2-(pyrrolidin-1-yl)ethyl]-6,7-dihydro-5H-benzo[5,6][1,4]diazepino[7,1-a]indole-10-carboxylic acid dihydrochloride]",> 7.00
22,"CCN1CCCC(CCN2CCn3c(c(C4CCCCC4)c4ccc(C(=O)O)cc43)-c3ccc(Cl)cc32)C1 (centres unmarked) [Example 1-261, 3-chloro-13-cyclohexyl-5-[2-(1-ethylpiperidin-3-yl)ethyl]-6,7-dihydro-5H-benzo[5,6][1,4]diazepino[7,1-a]indole-10-carboxylic acid dihydrochloride]",> 7.00
23,"CN1CCC(OCCN2CCn3c(c(C4CCCCC4)c4ccc(C(=O)O)cc43)-c3ccc(Cl)cc32)CC1 [Example 1-262, 3-chloro-13-cyclohexyl-5-[2-(1-methylpiperidin-4-yloxy)ethyl]-6,7-dihydro-5H-benzo[5,6][1,4]diazepino[7,1-a]indole-10-carboxylic acid dihydrochloride]",> 7.00
24,"CC(C)CN1CCCC(CCN2CCn3c(c(C4CCCCC4)c4ccc(C(=O)O)cc43)-c3ccc(Cl)cc32)C1 (centres unmarked) [Example 1-263, 3-chloro-13-cyclohexyl-5-[2-(1-isobutylpiperidin-3-yl)ethyl]-6,7-dihydro-5H-benzo[5,6][1,4]diazepino[7,1-a]indole-10-carboxylic acid dihydrochloride]",> 7.00
25,"O=C(O)c1ccc2c(C3CCCCC3)c3n(c2c1)CCN(CCC1CCCN(C2CCCC2)C1)c1cc(Cl)ccc1-3 (centres unmarked) [Example 1-264, 3-chloro-13-cyclohexyl-5-[2-(1-cyclopentylpiperidin-3-yl)ethyl]-6,7-dihydro-5H-benzo[5,6][1,4]diazepino[7,1-a]indole-10-carboxylic acid dihydrochloride]",> 7.00
26,"COC1CCCN(CCN2CCn3c(c(C4CCCCC4)c4ccc(C(=O)O)cc43)-c3ccc(Cl)cc32)C1 (centres unmarked) [Example 1-265, 3-chloro-13-cyclohexyl-5-[2-(3-methoxypiperidin-1-yl)ethyl]-6,7-dihydro-5H-benzo[5,6][1,4]diazepino[7,1-a]indole-10-carboxylic acid dihydrochloride]",> 7.00
